From patent US20220370453A1 (Storm Therapeutics Ltd, priority 2019, published 2022)

What was measured:
BCDIN3D [1] = biological target: T1, BCDIN3D (Homo sapiens, UniProt Q7Z5W3); test: BCDIN3D IC50 RFMS (RapidFire) assay with mini-helix; assay type: biochemical; conditions: mini-helix substrate 0.2 μM, SAM 6 μM, 25 nM enzyme
T1 sequence (Q7Z5W3 1-292): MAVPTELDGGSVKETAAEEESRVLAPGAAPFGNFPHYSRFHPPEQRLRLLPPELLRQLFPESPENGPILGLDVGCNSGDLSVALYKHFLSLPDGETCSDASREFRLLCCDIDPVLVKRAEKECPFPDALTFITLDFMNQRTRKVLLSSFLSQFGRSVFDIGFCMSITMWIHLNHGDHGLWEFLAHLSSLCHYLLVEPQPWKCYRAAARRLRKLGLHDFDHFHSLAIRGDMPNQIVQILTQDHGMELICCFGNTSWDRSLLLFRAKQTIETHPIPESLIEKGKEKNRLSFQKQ
Procedure, shortened: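 25 nM enzyme preincubated 10 min at room temperature with compound (1% DMSO) in 25 mM Tris pH 8.0, 10 mM DTT, 1 mM EDTA, 0.03% BSA. Reaction started with 0.2 μM mini-helix plus 6 μM SAM, run 1 h at 37 °C, quenched with TCA; SAH product quantified by RapidFire MS against isotopic SAH standards.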

BCDIN3D [2] = biological target: T1, BCDIN3D; test: BCDIN3D InCellPulse thermal stability assay in transfected A549 cells; assay type: cell-based; conditions: transiently transfected A549 cells, heat shock 58° C. 15 min
Procedure, shortened: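 A549 cells transiently expressing BCDIN3D N-terminally fused to ePL ProLabel tag, 1500 cells/well, pre-incubated 1 h at 37 °C with compound (0.6% DMSO). Heat shock 58 °C for 15 min; remaining soluble fusion detected by split β-galactosidase complementation luminescence.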

IC50 (BCDIN3D [1]) [µM]	IC50 (BCDIN3D [2]) [µM]	SMILES
2.1	6.53	Cn1ncc2c(Nc3ccc(Cl)cn3)nc(NCC3(N)CC3)nc21 [Compound 2.46, 6-N-[(1-aminocyclopropyl)methyl]-4-N-(5-chloropyridin-2-yl)-1-methylpyrazolo[3,4-d]pyrimidine-4,6-diamine]
4.52	8.3	Cn1ncc2c(Nc3cnc(C(F)(F)F)cn3)nc(NCC3(N)CC3)nc21 [Compound 2.47, N6-[(1-aminocyclopropyl)methyl]-1-methyl-N4-[5-(trifluoromethyl)pyrazin-2-yl]pyrazolo[3,4-d]pyrimidine-4,6-diamine]
1.08	2.43	CCn1ncc2c(Nc3ccc(C(F)(F)F)cc3)nc(NCC3(N)CC3)nc21 [Compound 2.48, 6-N-[(1-aminocyclopropyl)methyl]-1-ethyl-4-N-[4-(trifluoromethyl)phenyl]pyrazolo[3,4-d]pyrimidine-4,6-diamine]
0.05	0.379	[2H]C([2H])([2H])n1ncc2c(Nc3ccc(C(F)(F)F)cc3)nc(NCC3(N)CC3)nc21 [Compound 2.49, N6-[(1-aminocyclopropyl)methyl]-1-(trideuteriomethyl)-N4-[4-(trifluoromethyl)phenyl]pyrazolo[3,4-d]pyrimidine-4,6-diamine]
0.344	2.98	[2H]C([2H])([2H])n1ncc2c(Nc3ccc(C(F)(F)F)nc3)nc(NCC3(N)CC3)nc21 [Compound 2.50, N6-[(1-aminocyclopropyl)methyl]-1-(trideuteriomethyl)-N4-[6-(trifluoromethyl)-3-pyridyl]pyrazolo[3,4-d]pyrimidine-4,6-diamine]
0.179	0.252	C#CCCC1(CCOc2ccc(CNc3nc(NCC4(N)CC4)nc4c3cnn4C)cc2Cl)N=N1 [Compound 2.51, 6-N-[(1-aminocyclopropyl)methyl]-4-N-[[4-[2-(3-but-3-ynyldiazirin-3-yl)ethoxy]-3-chlorophenyl]methyl]-1-methylpyrazolo[3,4-d]pyrimidine-4,6-diamine]
6.9	8.89	Cn1ncc2c(Nc3ccc(C(F)(F)F)cc3)cc(NCC3(N)CC3)nc21 [Compound 2.52, N6-[(1-Aminocyclopropyl)methyl]-1-methyl-N4-[4-(trifluoromethyl)phenyl]pyrazolo[3,4-b]pyridine-4,6-diamine]
3.32	2.28	Cc1ccc(CNc2nc(NCC(C)N)nc3c2cnn3C)cc1Cl (stereo not shown) [Compound 3.01, 6-N-(2-aminopropyl)-4-N-[(3-chloro-4-methylphenyl)methyl]-1-methylpyrazolo[3,4-d]pyrimidine-4,6-diamine]
0.665	1.45	Cc1ccc(CNc2nc(NC[C@@H](C)N)nc3c2cnn3C)cc1Cl [Compound 3.04, 6-N-[(2R)-2-aminopropyl]-4-N-[(3-chloro-4-methylphenyl)methyl]-1-methylpyrazolo[3,4-d]pyrimidine-4,6-diamine]
1.44	1.44	CC[C@@H](CN)Nc1nc(NCc2ccc(C)c(Cl)c2)c2cnn(C)c2n1 [Compound 3.05]
3.42	4.42	CC[C@H](N)CNc1nc(NCc2ccc(C)c(Cl)c2)c2cnn(C)c2n1 [Compound 3.06, 6-N-[(2S)-2-aminobutyl]-4-N-[(3-chloro-4-methylphenyl)methyl]-1-methylpyrazolo[3,4-d]pyrimidine-4,6-diamine]
0.299	0.664	CC[C@@H](N)CNc1nc(NCc2ccc(C)c(Cl)c2)c2cnn(C)c2n1 [Compound 3.07, 6-N-[(2R)-2-aminobutyl]-4-N-[(3-chloro-4-methylphenyl)methyl]-1-methylpyrazolo[3,4-d]pyrimidine-4,6-diamine]
0.0505	0.259	Cn1ncc2c(Nc3ccc(C(F)(F)F)cc3)nc(NCC3(N)CCC3)nc21 [Compound 3.08, N6-[(1-aminocyclobutyl)methyl]-1-methyl-N4-[4-(trifluoromethyl)phenyl]pyrazolo[3,4-d]pyrimidine-4,6-diamine]
0.201	0.503	Cn1ncc2c(Nc3ccc(OC(F)F)cc3)nc(NCC3(N)CCC3)nc21 [Compound 3.09, N6-[(1-aminocyclobutyl)methyl]-N4-[4-(difluoromethoxy)phenyl]-1-methyl-pyrazolo[3,4-d]pyrimidine-4,6-diamine]
0.228	0.123	Cn1ncc2c(NC(C)(C)C)nc(NCC(N)C3CCCCC3)nc21 (stereo not shown) [Compound 3.10, N6-(2-amino-2-cyclohexyl-ethyl)-N4-tert-butyl-1-methyl-pyrazolo[3,4-d]pyrimidine-4,6-diamine]
0.101	0.0654	Cn1ncc2c(Nc3ccc(C(F)(F)F)cc3)nc(NCC(N)C3CCCCC3)nc21 (stereo not shown) [Compound 3.11, N6-(2-amino-2-cyclohexyl-ethyl)-1-methyl-N4-[4-(trifluoromethyl)phenyl]pyrazolo[3,4-d]pyrimidine-4,6-diamine]
0.479	1.57	Cn1ncc2c(Nc3ccc(C(F)(F)F)cc3)nc(NCC3(N)CC(F)(F)C3)nc21 [Compound 3.12, 6-N-[(1-amino-3,3-difluorocyclobutyl)methyl]-1-methyl-4-N-[4-(trifluoromethyl)phenyl]pyrazolo[3,4-d]pyrimidine-4,6-diamine]
0.18	0.51	Cn1ncc2c(Nc3ccc(C(F)(F)F)cc3)nc(NCC(N)C3CC3)nc21 (stereo not shown) [Compound 3.13, 6-N-(2-amino-2-cyclopropylethyl)-1-methyl-4-N-[4-(trifluoromethyl)phenyl]pyrazolo[3,4-d]pyrimidine-4,6-diamine]
0.252	2.41	Cn1ncc2c(Nc3ccc(C(F)(F)F)cc3)nc(NCC3(N)CCOC3)nc21 (stereo not shown) [Compound 3.14, 6-N-[(3-aminooxolan-3-yl)methyl]-1-methyl-4-N-[4-(trifluoromethyl)phenyl]pyrazolo[3,4-d]pyrimidine-4,6-diamine]
1.63	6.54	Cn1ncc2c(Nc3ccc(C(F)(F)F)nc3)nc(NCC3(N)CCOC3)nc21 (stereo not shown) [Compound 3.15, N6-[(3-aminotetrahydrofuran-3-yl)methyl]-1-methyl-N4-[6-(trifluoromethyl)-3-pyridyl]pyrazolo[3,4-d]pyrimidine-4,6-diamine]
9.92	60	Cn1ncc2c(Nc3ccc(C(F)(F)F)cc3)nc(NCC3COCCN3)nc21 (stereo not shown) [Compound 3.16, 1-methyl-N6-[(morpholin-3-yl)methyl]-N4-[4-(trifluoromethyl)phenyl]-1H-pyrazolo[3,4-d]pyrimidine-4,6-diamine]
0.088	0.335	Cn1ncc2c(Nc3ccc(C(F)(F)F)cc3)nc(NCC3(N)CCCC3)nc21 [Compound 3.18, 6-N-[(1-aminocyclopentyl)methyl]-1-methyl-4-N-[4-(trifluoromethyl)phenyl]pyrazolo[3,4-d]pyrimidine-4,6-diamine]
0.357	1.24	Cn1ncc2c(Nc3ccc(C(F)(F)F)nc3)nc(NCC3(N)CCCC3)nc21 [Compound 3.19, 6-N-[(1-aminocyclopentyl)methyl]-1-methyl-4-N-[6-(trifluoromethyl)pyridin-3-yl]pyrazolo[3,4-d]pyrimidine-4,6-diamine]
0.305	0.724	Cn1ncc2c(Nc3ccc(OC(F)F)cc3)nc(NCC3(N)CCCC3)nc21 [Compound 3.20, 6-N-[(1-aminocyclopentyl)methyl]-4-N-[4-(difluoromethoxy)phenyl]-1-methylpyrazolo[3,4-d]pyrimidine-4,6-diamine]
1.44	2	Cn1ncc2c(Nc3ccccc3)nc(NCC3(N)CCCC3)nc21 [Compound 3.21, 6-N-[(1-aminocyclopentyl)methyl]-1-methyl-4-N-phenylpyrazolo[3,4-d]pyrimidine-4,6-diamine]
1.8	2.26	Cn1ncc2c(Nc3ccc(C#N)cc3)nc(NCC3(N)CCCC3)nc21 [Compound 3.22, 4-[[6-[(1-aminocyclopentyl)methylamino]-1-methylpyrazolo[3,4-d]pyrimidin-4-yl]amino]benzonitrile]
0.115	0.267	Cn1ncc2c(Nc3ccc(OC(F)(F)F)cc3)nc(NCC3(N)CCCC3)nc21 [Compound 3.23, 6-N-[(1-aminocyclopentyl)methyl]-1-methyl-4-N-[4-(trifluoromethoxy)phenyl]pyrazolo[3,4-d]pyrimidine-4,6-diamine]
0.045	0.481	[2H]C([2H])([2H])n1ncc2c(Nc3ccc(C(F)(F)F)cc3)nc(NCC3(N)CCC3)nc21 [Compound 3.24, N6-[(1-aminocyclobutyl)methyl]-1-(trideuteriomethyl)-N4-[4-(trifluoromethyl)phenyl]pyrazolo[3,4-d]pyrimidine-4,6-diamine]
6.17	5.5	Cc1ccc(CNc2nc(NCC(N)CF)nc3c2cnn3C)cc1Cl (stereo not shown) [Compound 3.25, N6-(2-Amino-3-fluoropropyl)-N4-[(3-chloro-4-methylphenyl)methyl]-1-methyl-1H-pyrazolo[3,4-d]pyrimidine-4,6-diamine]
